Results: US7973147B2, “K04-0144 substance and a process for production thereof” (The Kitasato Institute, priority 2006, dated 2011)
Values after ≈ are worked out from the molar mass of the structure shown. “Also recorded” adds a separate entry of the source. Where two headings read alike, the source gives them in different places. Blank lines part the entries; values can stand above or below the compound they belong to.

Assays:
[1] = system: MRSA (Clinical isolate, the Kitasato Hospital, Japan); assay: Enhancing action of K04-0144D substance on antibiotic activities, broth microdilution method; format: cell-based, methicillin-resistant Staphylococcus aureus; details: for MIC: Staphylococcus aureus, MRSA
[2] = Solubility in solvent; format: physicochemical
[3] = system: methicillin-resistant Staphylococcus aureus (MRSA) K24 strain; assay: Enhancing action on activity of imipenem by paper disc method; format: cell-based
Procedure: Clinical isolate of methicillin-resistant Staphylococcus aureus (MRSA) K24 strain was used as a test microorganism. After the strain of MRSA K24 was cultured in Mueller-Hinton broth (2.1% w/v) (DIFCO) at 37° C. for 20 hours, the strain was suspended to the concentration corresponding to 0.5 Mc FARAND (about 10^8 CFU/ml) in the same medium. The suspension was smeared on MHA medium (Mueller-Hinton broth 2.1% (w/v), agar 1.5%) and a medium of the same composition containing imipenem (Tienem for Intramuscular Injection, 0.5 g, Banyu Pharmaceutical Co., Ltd., Japan) with a concentration without affecting the growth of test microorganisms, i.e. final concentration of 10 μg/ml. Smearing was performed according to the method of National Committee for Laboratory Standard, the U.S. (NCCLS), by using sterilized cotton-tipped swab (Kawamoto Sangyo Co., Ltd., Japan).

[4] = system: MRSA 70; assay: MIC, agar plate dilution method; format: cell-based, methicillin-resistant Staphylococcus aureus; details: Staphylococcus aureus; MRSA 70; 37° C., 20 hours; read-out: MIC
Procedure: (§1) Assay of minimum inhibitory concentration (MIC) was performed according to the agar plate dilution method (Method of Japan Society of Chemotherapy, CHEMOTHERAPY 29, 76-79, 1981).
(§2) Test organisms used were 27 types of microorganisms including clinical isolates of methicillin-resistant Staphylococcus aureus. Each test organism was cultured in Mueller-Hinton broth (2.1% w/v) (DIFCO) at 37° C. for 20 hours, and the cultured cells were suspended to about 10^6 cell counts/ml in the same medium, then was used as the microbial suspension for inoculation. The prepared microbial suspension was smeared by using the microplanter on MHA medium (Mueller-Hinton broth 2.1% (w/v) and agar 1.5%) containing K04-0144A substance, K04-0144B substance or K04-0144C substance, each of which was subjected to two-fold stepwise dilution from 128 μg/ml. After culturing at 37° C. for 20 hours, MIC was determined by macroscopically confirming the growth of microorganisms. Vancomycin, arbekacin and linezolid were used as a comparative control.

[5] = system: MRSA N315 IR94; assay: MIC, agar plate dilution method; format: cell-based, methicillin-resistant Staphylococcus aureus; details: Staphylococcus aureus, 20 h
Procedure: as §1, §2

[6] = system: MRSA 92-1191; assay: MIC, agar plate dilution method; format: cell-based, methicillin-resistant Staphylococcus aureus; details: Staphylococcus aureus; MRSA 92-1191; 37° C., 20 hours; read-out: MIC
Procedure: as §1, §2

[7] = system: C. freundii ATCC8090; assay: MIC, agar plate dilution method; format: cell-based; details: Citrobacter freundii; C. freundii ATCC8090; 37° C., 20 hours; read-out: MIC
Procedure: as §1, §2

[8] = system: S. aureus FDA209P; assay: MIC, agar plate dilution method; format: cell-based; details: Staphylococcus aureus; S. aureus FDA209P; 37° C., 20 hours; read-out: MIC
Procedure: as §1, §2

[9] = system: E. coli NIHJ JC-2; assay: MIC, agar plate dilution method; format: cell-based; details: Escherichia coli, NIHJJC2; E. coli NIHJ JC-2; 37° C., 20 hours; read-out: MIC
Procedure: as §1, §2

[10] = system: E. faecium NTCT12203(VanA); assay: MIC, agar plate dilution method; format: cell-based; details: Enterococcus faecium; E. faecium NTCT12203(VanA); 37° C., 20 hours; read-out: MIC
Procedure: as §1, §2

[11] = system: P. mirabilis IFO3849; assay: MIC, agar plate dilution method; format: cell-based; details: Proteus mirabilis; P. mirabilis IFO3849; 37° C., 20 hours; read-out: MIC
Procedure: as §1, §2

[12] = system: M. morganii IID Kono; assay: MIC, agar plate dilution method; format: cell-based; details: Morganella morganii; M. morganii IID Kono; 37° C., 20 hours; read-out: MIC
Procedure: as §1, §2

[13] = system: P. aeruginosa 46001; assay: MIC, agar plate dilution method; format: cell-based; details: Pseudomonas aeruginosa; P. aeruginosa 46001; 37° C., 20 hours; read-out: MIC
Procedure: as §1, §2

[14] = system: S. epidermidis IFO12648; assay: MIC, agar plate dilution method; format: cell-based; details: Staphylococcus epidermidis; S. epidermidis IFO12648; 37° C., 20 hours; read-out: MIC
Procedure: as §1, §2

[15] = system: E. aerogenes NCTC10006; assay: MIC, agar plate dilution method; format: cell-based; details: Klebsiella aerogenes; E. aerogenes NCTC10006; 37° C., 20 hours; read-out: MIC
Procedure: as §1, §2

[16] = system: E. cloacae IFO13535; assay: MIC, agar plate dilution method; format: cell-based; details: Enterobacter cloacae; E. cloacae IFO13535; 37° C., 20 hours; read-out: MIC
Procedure: as §1, §2

[17] = system: A. calcoaceticus IFO2552; assay: MIC, agar plate dilution method; format: cell-based; details: Acinetobacter calcoaceticus; A. calcoaceticus IFO2552; 37° C., 20 hours; read-out: MIC
Procedure: as §1, §2

[18] = system: E. facecalis NTCT12201(VanA); assay: MIC, agar plate dilution method; format: cell-based; details: E. facecalis NTCT12201(VanA); 37° C., 20 hours; read-out: MIC
Procedure: as §1, §2

[19] = system: S. aureus Smith; assay: MIC, agar plate dilution method; format: cell-based; details: Staphylococcus aureus; S. aureus Smith; 37° C., 20 hours; read-out: MIC
Procedure: as §1, §2

[20] = system: S. aureus ISP447; assay: MIC, agar plate dilution method; format: cell-based; details: Staphylococcus aureus; S. aureus ISP447; 37° C., 20 hours; read-out: MIC
Procedure: as §1, §2

[21] = system: P. vulgaris OX-19; assay: MIC, agar plate dilution method; format: cell-based; details: Proteus vulgaris, OX19; P. vulgaris OX-19; 37° C., 20 hours; read-out: MIC
Procedure: as §1, §2

[22] = system: K. pneumoniae NCTN9632; assay: MIC, agar plate dilution method; format: cell-based; details: Klebsiella pneumoniae; K. pneumoniae NCTN9632; 37° C., 20 hours; read-out: MIC
Procedure: as §1, §2

[23] = system: S. marcescens IFO12648; assay: MIC, agar plate dilution method; format: cell-based; details: Serratia marcescens; S. marcescens IFO12648; 37° C., 20 hours; read-out: MIC
Procedure: as §1, §2

[24] = system: S. aureus ISP217; assay: MIC, agar plate dilution method; format: cell-based; details: Staphylococcus aureus; S. aureus ISP217; 37° C., 20 hours; read-out: MIC
Procedure: as §1, §2

[25] = system: M. luteus ATCC9341; assay: MIC, agar plate dilution method; format: cell-based; details: Micrococcus luteus; M. luteus ATCC9341; 37° C., 20 hours; read-out: MIC
Procedure: as §1, §2

[26] = system: P. aeruginosa E-2; assay: MIC, agar plate dilution method; format: cell-based; details: Pseudomonas aeruginosa, E2; P. aeruginosa E-2; 37° C., 20 hours; read-out: MIC
Procedure: as §1, §2

[27] = system: E. faecalis ATCC21212; assay: MIC, agar plate dilution method; format: cell-based; details: Enterococcus faecalis; E. faecalis ATCC21212; 37° C., 20 hours; read-out: MIC
Procedure: as §1, §2

[28] = system: MRSA N315 IR94 HR-1; assay: MIC, agar plate dilution method; format: cell-based, methicillin-resistant Staphylococcus aureus; details: Staphylococcus aureus, 20 h
Procedure: as §1, §2

[29] = system: S. aureus 8325(pMS97); assay: MIC, agar plate dilution method; format: cell-based; details: Staphylococcus aureus, 20 h
Procedure: as §1, §2

[30] = system: S. aureus 8325(pEP2104); assay: MIC, agar plate dilution method; format: cell-based; details: Staphylococcus aureus, 20 h
Procedure: as §1, §2

MIC ([1]; antibiotic alone, without K04-0144D substance, read-out: Minimum Inhibitory Concentration (−)): 2 µg/mL
MIC ([1]; combined use with K04-0144D substance 16 μg/ml, read-out: Minimum Inhibitory Concentration (+)): 1 µg/mL
SMILES: [H]/N=C(/N)N[C@H]1[C@H](O)[C@@H](O)[C@H](O[C@@H]2O[C@@H](C)[C@](O)(C=O)[C@H]2O[C@@H]2O[C@@H](CO)[C@H](O)[C@@H](O)[C@@H]2NC)[C@@H](N/C(N)=N\[H])[C@@H]1O [Streptomycin, streptomycin]
enhancing action of K04-0144D substance on the antibiotic's activity ([1]; K04-0144D substance 16 μg/ml): no enhancing action
Ratio (−/+K04-0144D) ([1]; MIC alone / MIC with K04-0144D substance 16 μg/ml): 2

SMILES: C=C/C(C)=C/CC1C2(C)CCCC(C)(C)C2CC(O)C1(O)CSCC(NC(C)=O)C(=O)O (stereo not shown) [K04-0144D substance]
Solubility in solvent [2]: Soluble in methanol and water acetonitrile; also recorded: Insoluble in chloroform and hexane ethyl acetate
Diameter of inhibition ring ([3]; 1 μg/6 mm disc, Imipenem (10 μg/ml) (+)): 15 mm
Diameter of inhibition ring ([3]; 1 μg/6 mm disc, Imipenem (10 μg/ml) (−)): did not exhibit an inhibitory ring
Diameter of inhibition ring ([3]; 10 μg/6 mm disc, Imipenem (10 μg/ml) (+)): 26 mm
Diameter of inhibition ring ([3]; 10 μg/6 mm disc, Imipenem (10 μg/ml) (−)): 14 mm

SMILES: CC(=O)NC[C@H]1CN(c2ccc(N3CCOCC3)c(F)c2)C(=O)O1 [linezolid, reference compound]
MIC [4]: 0.5 µg/mL (≈ 1.48 µM)
MIC [5]: 1 µg/mL (≈ 2.96 µM)
MIC [6]: 2 µg/mL (≈ 5.93 µM)
MIC [7]: > 32 µg/mL
MIC [8]: 1 µg/mL (≈ 2.96 µM)
MIC [9]: > 32 µg/mL
MIC [10]: 2 µg/mL (≈ 5.93 µM)
MIC [11]: > 32 µg/mL
MIC [12]: > 32 µg/mL
MIC [13]: > 32 µg/mL
MIC [14]: 2 µg/mL (≈ 5.93 µM)
MIC [15]: > 32 µg/mL
MIC [16]: > 32 µg/mL
MIC [17]: > 32 µg/mL
MIC [18]: 2 µg/mL (≈ 5.93 µM)
MIC [19]: 2 µg/mL (≈ 5.93 µM)
MIC [20]: 2 µg/mL (≈ 5.93 µM)
MIC [21]: 8 µg/mL (≈ 23.7 µM)
MIC [22]: > 32 µg/mL
MIC [23]: > 32 µg/mL
MIC [24]: 2 µg/mL (≈ 5.93 µM)
MIC [25]: 2 µg/mL (≈ 5.93 µM)
MIC [26]: > 32 µg/mL
MIC [27]: 2 µg/mL (≈ 5.93 µM)

SMILES: C=C(C/C=C(\C)CCC=C(C)C)CCC(C)(C)/C=C/CC/C(C)=C\COC(COP(=O)(O)OC1OC(C(N)=O)C(C)(O)C(OC(N)=O)C1OC1OC(CO)C(OC2OC(C)C(OC3OC(C(N)=O)C(O)C(O)C3O)C(O)C2NC(C)=O)C(O)C1NC(C)=O)C(=O)O (stereo not shown) [K04-0144C]
Solubility in solvent ([2]; listed as K04-0144C substance): Soluble in water, methanol and dimethyl sulfoxide; also recorded: Insoluble in acetone, chloroform and n-hexane
MIC [4]: ≤ 0.25 µg/mL
MIC [28]: ≤ 0.25 µg/mL
MIC [5]: ≤ 0.25 µg/mL
MIC [6]: 0.5 µg/mL (≈ 0.378 µM)
MIC [7]: 64 µg/mL (≈ 48.3 µM)
MIC [8]: 1 µg/mL (≈ 0.755 µM)
MIC [9]: 8 µg/mL (≈ 6.04 µM)
MIC [10]: 64 µg/mL (≈ 48.3 µM)
MIC [11]: 8 µg/mL (≈ 6.04 µM)
MIC [12]: 32 µg/mL (≈ 24.2 µM)
MIC [13]: 32 µg/mL (≈ 24.2 µM)
MIC [14]: 1 µg/mL (≈ 0.755 µM)
MIC [15]: 32 µg/mL (≈ 24.2 µM)
MIC [29]: 0.5 µg/mL (≈ 0.378 µM)
MIC [16]: 32 µg/mL (≈ 24.2 µM)
MIC [17]: 8 µg/mL (≈ 6.04 µM)
MIC [18]: 0.5 µg/mL (≈ 0.378 µM)
MIC [19]: 1 µg/mL (≈ 0.755 µM)
MIC [20]: ≤ 0.25 µg/mL
MIC [30]: 0.5 µg/mL (≈ 0.378 µM)
MIC [21]: 4 µg/mL (≈ 3.02 µM)
MIC [22]: 8 µg/mL (≈ 6.04 µM)
MIC [23]: 32 µg/mL (≈ 24.2 µM)
MIC [24]: ≤ 0.25 µg/mL
MIC [25]: > 128 µg/mL
MIC [26]: 32 µg/mL (≈ 24.2 µM)
MIC [27]: 0.5 µg/mL (≈ 0.378 µM)
